Results on 88 molecules are retold here after a melting point compilation (Tetko et al.; mined from patent text by program, amines drawn as free bases though some values may be those of a salt).

Each structure is given as a SMILES string.

In turn, `CNC(=O)Nc1ccc(Cl)cc1Cl` showed a melting point of 214 °C.
Take `COC(=O)C1(C(=O)Nc2ccc(Br)cc2C)C2CCCCC21` (stereo not drawn): the melting point was 105 to 107 °C.
Under `O=c1[nH]cc(Oc2ccccc2)cc1-c1csc(-c2ccncc2)n1` stands 243 to 245 °C.
Under `CNC(=O)N(O)C(C)C#Cc1ccc(C(C)C)cc1` (stereo not drawn) stands 146 to 147 °C; under `COc1ccc(OCC(O)CNC(C)(C)C)c(-c2ccc(=S)[nH]n2)c1` (stereo not drawn), 188 to 190 °C; under `NCC(O)COc1cc([N+](=O)[O-])ccc1N` (stereo not drawn), 141 °C.
For `CC(=O)Nc1ccc(F)cc1-c1ccc(Cl)c(Cl)c1`, the melting point fell in the range of 138 to 140 °C.
Consider `Cc1nc2cc(NC(=O)c3cc4cc(F)ccc4n3Cc3cccc(F)c3)cnc2n1C`, for which the melting point lay in the range of 274 to 275 °C.
On to `CC(CCc1ccc(Cl)cc1)(Cn1ccnc1)Sc1cc(Cl)ccc1Cl` (stereo not drawn), for which the melting point is 150 °C.
As for `COC(=O)c1cc(Cl)c(Cl)c(Cl)c1`, the figure is 111 to 112 °C; as for `O=P(Oc1ccc(-c2ccccc2)cc1)(Oc1ccc(-c2ccccc2)cc1)Oc1ccc(-c2ccccc2)cc1`, 137 °C.
Under `COC(=O)c1cc(C(=O)OC)cc(-c2cc(C(=O)OC)cc(C(=O)OC)c2)c1` stands 214 to 215 °C; under `OC1CSC(Oc2cc(-c3cncnc3)cc(F)c2F)C(O)C1O` (stereo not drawn), 191 °C; under `C=C(Br)c1cc(O)cc2nc(-c3ccc(O)cc3F)oc12`, 235 to 237 °C.
Under `CC(C)(O)C1CC(c2ccc(-c3ccc(N4C[C@H](Cn5ccnn5)OC4=O)cc3F)cn2)=NO1` (stereo partly drawn) stands 197 °C; under `Cc1nn(CCO)c(-c2ccc(F)cc2)c1-c1ccc2c(c1)NC(=O)CO2`, 178 to 179 °C.
`CC(C)(C)[C@H](NC(=O)CCC1c2ccccc2-c2ccccc21)C(=O)O` yielded a melting point of 79 to 83 °C.
For `CCCCCCCCCCOc1ccc(CO)cc1OCCCCCCCCCC`, the melting point was 41 to 42.5 °C.
Under `O=c1c(Cc2ccncc2)c(-c2ccc(F)cc2)[nH]c2ccccc12` stands 144 to 146 °C.
Under `COC(=O)C(=C(C)O)N1C(=O)C(N2C(=O)c3ccccc3C2=O)C1SC(C)=O` (stereo not drawn) stands 178 to 183 °C; under `CCOC(=O)c1nc2ccc(N)cc2c(O)c1C(=O)OCC`, 219 to 221 °C.
`COc1c(C)c(NC(=O)NCCO)c(C)c2c1OCC2c1ccc(C(C)C)cc1` (stereo not drawn): the melting point fell in the range of 127 to 129 °C.
Under `Cc1ccc(-c2c(NS(=O)(=O)c3ccc(C(C)(C)C)cc3)ncnc2OCCOc2ncc(C#CC(C)(C)O)cn2)cc1` stands 172 to 174 °C; under `N#Cc1c(N2CCCC2)cc(-c2ccccc2)c2c1Cc1ccccc1-2`, 210 to 212 °C; under `O=C1CCCc2ccc(-c3ccccc3)cc21`, 67 °C.
`Cc1sc(C=O)c(C)c1Br`: the melting point fell in the range of 44 to 45 °C.
With `CCOC(=O)CSc1nc(Cl)cc(Nc2c(C)cc(C)cc2C)n1`, the melting point fell in the range of 100 to 103 °C.
As for `CC(C)(C)n1cnc2c1c1ccccc1n1nnnc21`, the figure is 224 to 226 °C.
Under `CCCCC1=Nc2ccccc2SN1` stands 153 to 155 °C; under `CC(C)(C)OC(=O)Nc1ccc(OC2CN(CC(c3ccccc3)c3ccccc3)C2)cc1`, 149 to 151 °C.
Under `CC1(C)N=C(Oc2ccccn2)c2cc(F)ccc2O1` stands 114 °C; under `CCCCn1c(=O)c2c(NC)n[nH]c2n(CCOCc2ccccc2)c1=O`, 214 to 216 °C.
`C[C@@H](O)[C@H]1C(=O)N([Si](C)(C)C(C)(C)C)[C@@H]1CC(=O)[Si](C)(C)C` yielded a melting point of 82 to 84 °C.
As for `CS(=O)(=O)c1ccc(Oc2ccc(Cl)c(Cl)c2)c(N)c1`, the figure is 119 to 121 °C; as for `CC(c1ccc(F)cc1)n1c(NC2CCN(CCc3ccccc3)CC2)nc2ccccc21` (stereo not drawn), 162 °C; as for `CC(C)(C)NS(=O)(=O)c1cc2c(s1)S(=O)(=O)NCC2O` (stereo not drawn), 144 to 147 °C.
Under `Cc1cc(NN)c2ccccc2n1` stands 195 to 197 °C; under `COc1ccc(OC)c(C(=O)CC(CC(=O)c2ccc(Cl)cc2)c2cccc(C(=O)O)c2)c1` (stereo not drawn), 164 to 165 °C.
As for `Cc1cc2c(=O)c(C(=O)O)cn(-c3cc(N)c(F)cc3F)c2cc1F`, the figure is greater than 280 °C; as for `Cc1cc(-c2ccc(S(N)(=O)=O)cc2)n(-c2ccc(F)cc2)c1Cl`, 119 to 120 °C; as for `CCCCCCC(=O)CCCC(=O)O`, 58 to 59 °C.
`Cc1nnc2nc(-c3ccccc3)c3cc([N+](=O)[O-])ccc3n12` came in with a melting point of 350 to 352 °C.
`CCCCc1nn(-c2cc(NC(=S)CCC)ccc2Cl)c(=O)n1Cc1ccc(-c2ccccc2S(=O)(=O)NC(=O)OC(C)(C)C)cc1F` displayed a melting point of 115 to 117 °C.
In turn, `Cc1nc(C(=O)Cl)c(CCc2ccccc2)o1` yielded a melting point of 38 to 39 °C.
As for `C[C@@H](CO)CCn1c(C(=O)NCc2cc(C(F)(F)F)cc(C(F)(F)F)c2)c(-c2ccc(Cl)cc2)c2cccnc2c1=O`, the figure is 259 to 261 °C; as for `COc1ccc(CSC(C)(C)C(O)(CO)c2ccc(F)cc2F)cc1` (stereo not drawn), 113 °C; as for `ClCc1ccccc1-c1ccccc1-c1ccccc1CCl`, 189 to 190 °C.
`NC(=O)/C=C1/c2cc(F)cc(F)c2CC1O` (stereo not drawn): the melting point fell in the range of 235 to 237 °C.
As to `COc1c2c(cc3ccc(OC(C)=O)cc13)-c1ccc(OC(C)=O)cc1CO2`, the melting point was 165 to 167 °C.
Under `O=C(Oc1ccc(CS(=O)(=O)Cc2ccc(OC(=O)C3CC3)c([N+](=O)[O-])c2)cc1[N+](=O)[O-])C1CC1` stands 114 to 116 °C; under `CCOC(=O)C=Cc1ccc(CCNS(=O)(=O)C=Cc2ccccc2)cc1`, 102 to 104 °C; under `OCc1cn(C(c2ccccc2)(c2ccccc2)c2ccccc2)nn1`, 200 to 201 °C.
With `OCC(=C(c1ccc(F)cc1)c1ccc(F)cc1)c1nnn(C(c2ccccc2)(c2ccccc2)c2ccccc2)n1`, the melting point was in the range of 176 to 178 °C.
Under `O=C(Nc1ccccc1)ONC1=Nc2ccc(Br)cc2C(c2ccccn2)=NC1` stands 190 to 192 °C; under `O=C1CCC(=O)C1C(=O)c1ccc(Cl)cc1Cl`, 109 to 113 °C.
`CC1CC2=CC(=O)CCC2C2CCC3(C)C(C=O)CCC3C12` (stereo not drawn): the melting point is 207 to 230 °C.
As for `CCCO[C@@H]1C[C@@H](C(=O)NC)N(S(=O)(=O)c2ccc(Cl)c(COc3cccc4c(-n5ccnc5)cc(C)nc34)c2Cl)C1`, the figure is 84 °C.
On to `Nc1cccc(C(=O)Nc2ccc(C(=O)N3CCCc4ccccc43)cc2)c1`, for which the melting point was found to be 206 °C.
`COc1cccc(S(=O)(=O)c2ccc(C)nc2Nc2c(C)cc(C)cc2C)c1` yielded a melting point of 87 to 88 °C.
As for `COc1cc(OCCCN2CCc3cc(OC)c(OC)cc3C2)ccc1NC(=O)c1cccc2c(=O)c3cccc(F)c3[nH]c12`, the figure is 152 °C; as for `CCN1CCC(O)(c2cc(F)cc(F)c2)C1` (single isomer, unassigned; (-)), 111 to 112 °C; as for `CCCC(C)(Oc1ccccc1)C(=O)OC1CC(O)C=C2C=CC(C)C(CCC3CC(O)CC(=O)O3)C21` (mixture of isomers), 151 to 153 °C.
As for `CCCCCCCCN1C(=O)NC2(CC(C)(CC)NC(C)(CC)C2C)C1=O` (stereo not drawn), the figure is 65 to 67 °C; as for `CNC1C(O)CC2C3CCC4CC(O)CCC4(C)C3CCC21C` (stereo not drawn), 241 to 253 °C; as for `CSc1cc2c(cc1C(F)(F)F)N(C(=O)Nc1ccc(CO)cc1)CC2`, 184 to 187 °C.
`CCOC(=O)N(CCNc1ccc2ncc(Br)n2n1)c1ccccc1` registered a melting point of 160 to 161 °C.
Consider `NC(=O)c1ccccc1NC(=O)c1ccc2c(c1)CCO2`, for which the melting point was in the range of 230 to 235 °C.
`C[Si](C)(C)C=Cc1cn(C2OC(CO)C(O)C2F)c(=O)[nH]c1=O` (stereo not drawn) showed a melting point of 164 to 165 °C.
In turn, `Cc1ccccc1C(=O)Nc1ccc(C(=O)N2CCCC(CO)c3ccccc32)cc1` (stereo not drawn) yielded a melting point of 202 to 206 °C.
`CC(=O)N[C@@H](CSC(C)=O)C(=O)NCCSC(=O)C(C)C` returned a melting point of 115 to 117 °C.
As for `Cc1ccc(CCC(N)CC(=O)O)cc1` (stereo not drawn), the figure is 206 to 207 °C; as for `CC(CCc1nnn[nH]1)Cc1ccc(OCc2ccc3ccccc3n2)cc1` (stereo not drawn), 75 to 77 °C; as for `CCCc1c(OCCCOc2ccc(C(=O)O)cc2Br)ccc(C(C)=O)c1O`, 180 to 182 °C.
`CCCCn1c(=O)c2[nH]cnc2n(CCCC)c1=S` gave a melting point of 137 °C.
In turn, `COc1cccc2c(=O)c(CO)cn(C)c12` displayed a melting point of 162 to 167 °C.
Under `Nc1cc(OCCO)nc(N)n1` stands 190 °C; under `COC12CC(CN3CCC(c4c[nH]c5ccccc45)CC3)CN(C)C1Cc1c(Br)[nH]c3cccc2c13` (stereo not drawn), 160 to 170 °C.
As for `COc1ccc2c(c1)c1c(n2C(=O)c2ccc(Cl)cc2)CCC(C(=O)O)C1` (stereo not drawn), the melting point is 269 to 273 °C.
With `Nc1ncnc2c1c(-c1ccc(Oc3ccccc3)cc1)nn2C1CCC(=O)CC1`, the melting point fell in the range of 203 to 205 °C.
In turn, `CCOCc1nc2c(N)nc(C)c(C)c2n1CCOCC#Cc1ccccc1` had a melting point of 129 to 130 °C.
For `CCOC(=O)Cc1cnn(C)c1O`, the melting point lay in the range of 104 to 105 °C.
Under `CCn1cc(C(=O)O)c(=O)cc1-c1ccc(N2CCCC2)cc1` stands 276 to 278 °C; under `CCOC(=O)COc1cc(C)nc2c(O)cccc12`, 97 to 98 °C; under `C=CCOc1cc(C=CC(=O)O)ccc1OC(C)=O`, 154 to 155 °C.
Turning to `CCCOC(=O)C1=C(C)NC(C)=C(C(=O)OCC)C1c1ccccc1C#N` (stereo not drawn), the melting point worked out at 156 °C.
As for `C#CCOc1ccc(NCc2ccc(Cl)nc2)c(C(=O)c2ccc(C(C)C)cc2)c1`, the figure is 96 °C.
With `COc1cc(NS(=O)(=O)c2ccc(C)cc2)cc(OC)c1`, the melting point was 103 to 104 °C.
As for `O=C(O)Cc1nc(-c2ccc(Cl)c(Cl)c2)oc1-c1ccoc1`, the melting point was in the range of 222 to 223 °C.

Broadly, the melting point is the temperature, or range, at which the solid turns liquid.
